Measured values taken from ChEMBL document CHEMBL1156319, “Synthesis, crystal and antibacterial studies of diversely functionalized tetrahydropyridin-4-ol” (2010).
Converted amounts (≈) assume the structure as drawn.

Key:
Type in all cases: functional
Staphylococcus aureus = test: Antibacterial activity against Staphylococcus aureus LCB0001 by two fold serial dilution method
[1] = tested on: Staphylococcus epidermidis; test: Antibacterial activity against Staphylococcus epidermidis LCB0003 by two fold serial dilution method
Enterococcus faecalis = test: Antibacterial activity against Enterococcus faecalis LCB0005 by two fold serial dilution method
Enterococcus faecium = test: Antibacterial activity against Enterococcus faecium LCB0009 by two fold serial dilution method
Escherichia coli [2] = test: Antibacterial activity against Escherichia coli LCB0010 by two fold serial dilution method
Escherichia coli [3] = test: Antibacterial activity against Escherichia coli LCB0011 by two fold serial dilution method
Escherichia coli [4] = test: Antibacterial activity against Escherichia coli LCB0012 by two fold serial dilution method
Pseudomonas aeruginosa = test: Antibacterial activity against Pseudomonas aeruginosa LCB0013 by two fold serial dilution method
Klebsiella pneumoniae = test: Antibacterial activity against Klebsiella pneumoniae LCB0014 by two fold serial dilution method
Haemophilus influenzae = test: Antibacterial activity against Haemophilus influenzae LCB0015 by two fold serial dilution method
Moraxella catarrhalis = test: Antibacterial activity against Moraxella catarrhalis LCB0016 by two fold serial dilution method

Structure (SMILES) | MIC90 (Staphylococcus aureus) | MIC90 [1] | MIC90 (Enterococcus faecalis) | MIC90 (Enterococcus faecium) | MIC90 (Escherichia coli [2]) | MIC90 (Escherichia coli [3]) | MIC90 (Escherichia coli [4]) | MIC90 (Pseudomonas aeruginosa) | MIC90 (Klebsiella pneumoniae) | MIC90 (Haemophilus influenzae) | MIC90 (Moraxella catarrhalis)
CCOC(=O)C1=C(O)CC(c2ccccc2)N(C(=O)C(C)N2CCOCC2)C1c1ccccc1 (stereo not given) | > 128 µg/mL | > 128 µg/mL | > 128 µg/mL | 128 µg/mL (≈ 276 µM) | > 128 µg/mL | > 128 µg/mL | > 128 µg/mL | > 128 µg/mL | > 128 µg/mL | > 128 µg/mL | > 128 µg/mL
CCOC(=O)C1=C(O)CC(c2ccccc2)N(C(=O)C(C)N2CCC(=O)CC2)C1c1ccccc1 (stereo not given) | > 128 µg/mL | > 128 µg/mL | > 128 µg/mL | > 128 µg/mL | > 128 µg/mL | > 128 µg/mL | 128 µg/mL (≈ 269 µM) | > 128 µg/mL | > 128 µg/mL | > 128 µg/mL | > 128 µg/mL
CCOC(=O)C1=C(O)CC(c2ccccc2)N(C(=O)CN2CCCCC2)C1c1ccccc1 (stereo not given) | > 128 µg/mL | > 128 µg/mL | > 128 µg/mL | 128 µg/mL (≈ 285 µM) | > 128 µg/mL | > 128 µg/mL | 64 µg/mL (≈ 143 µM) | > 128 µg/mL | > 128 µg/mL | > 128 µg/mL | 32 µg/mL (≈ 71.3 µM)
CCOC(=O)C1=C(O)CC(c2ccccc2)N(C(=O)CN2CCN(C)CC2)C1c1ccccc1 (stereo not given) | > 128 µg/mL | > 128 µg/mL | > 128 µg/mL | 128 µg/mL (≈ 276 µM) | > 128 µg/mL | > 128 µg/mL | > 128 µg/mL | > 128 µg/mL | > 128 µg/mL | > 128 µg/mL | 32 µg/mL (≈ 69 µM)
CCOC(=O)C1=C(O)CC(c2ccccc2)N(C(=O)CN2CCSCC2)C1c1ccccc1 (stereo not given) | > 128 µg/mL | > 128 µg/mL | > 128 µg/mL | > 128 µg/mL | > 128 µg/mL | > 128 µg/mL | > 128 µg/mL | > 128 µg/mL | > 128 µg/mL | > 128 µg/mL | 64 µg/mL (≈ 137 µM)
CCOC(=O)C1=C(O)CC(c2ccccc2)N(C(=O)CN2CCOCC2)C1c1ccccc1 (stereo not given) | > 128 µg/mL | > 128 µg/mL | > 128 µg/mL | > 128 µg/mL | > 128 µg/mL | > 128 µg/mL | > 128 µg/mL | > 128 µg/mL | > 128 µg/mL | > 128 µg/mL | 64 µg/mL (≈ 142 µM)
CCOC(=O)C1=C(O)CC(c2ccccc2)N(C(=O)CN2CCC(=O)CC2)C1c1ccccc1 (stereo not given) | > 128 µg/mL | > 128 µg/mL | > 128 µg/mL | > 128 µg/mL | > 128 µg/mL | > 128 µg/mL | > 128 µg/mL | > 128 µg/mL | > 128 µg/mL | > 128 µg/mL | 64 µg/mL (≈ 138 µM)
CCOC(=O)C1=C(O)CC(c2ccccc2)N(C(=O)C(C)N2CCN(C)CC2)C1c1ccccc1 (stereo not given) | > 128 µg/mL | > 128 µg/mL | > 128 µg/mL | > 128 µg/mL | > 128 µg/mL | > 128 µg/mL | > 128 µg/mL | > 128 µg/mL | > 128 µg/mL | > 128 µg/mL | 64 µg/mL (≈ 134 µM)
CCOC(=O)C1=C(O)CC(c2ccccc2)N(C(=O)C(C)N2CCSCC2)C1c1ccccc1 (stereo not given) | > 128 µg/mL | > 128 µg/mL | > 128 µg/mL | > 128 µg/mL | > 128 µg/mL | > 128 µg/mL | > 128 µg/mL | > 128 µg/mL | > 128 µg/mL | > 128 µg/mL | > 128 µg/mL
CCOC(=O)C1=C(O)CC(c2ccccc2)N(C(=O)C(C)n2ccnc2)C1c1ccccc1 (stereo not given) | 32 µg/mL (≈ 71.8 µM) | > 128 µg/mL | > 128 µg/mL | > 128 µg/mL | > 128 µg/mL | > 128 µg/mL | 64 µg/mL (≈ 144 µM) | 128 µg/mL (≈ 287 µM) | 128 µg/mL (≈ 287 µM) | > 128 µg/mL | 64 µg/mL (≈ 144 µM)
CCOC(=O)C1=C(O)CC(c2ccccc2)N(C(=O)C(C)Sc2nc3ccccc3o2)C1c1ccccc1 (stereo not given) | > 128 µg/mL | > 128 µg/mL | > 128 µg/mL | > 128 µg/mL | > 128 µg/mL | > 128 µg/mL | > 128 µg/mL | > 128 µg/mL | > 128 µg/mL | > 128 µg/mL | > 128 µg/mL
CCOC(=O)C1=C(O)CC(c2ccccc2)N(C(=O)C(C)n2nnc(-c3ccccc3)n2)C1c1ccccc1 (stereo not given) | > 128 µg/mL | > 128 µg/mL | > 128 µg/mL | > 128 µg/mL | > 128 µg/mL | > 128 µg/mL | > 128 µg/mL | > 128 µg/mL | > 128 µg/mL | > 128 µg/mL | > 128 µg/mL
CCOC(=O)C1=C(O)CC(c2ccccc2)N(C(=O)C(C)N2CCCCC2)C1c1ccccc1 (stereo not given) | > 128 µg/mL | > 128 µg/mL | > 128 µg/mL | 128 µg/mL (≈ 277 µM) | > 128 µg/mL | > 128 µg/mL | > 128 µg/mL | > 128 µg/mL | > 128 µg/mL | > 128 µg/mL | 64 µg/mL (≈ 138 µM)

More lines, now with the values ahead:

MIC90 (Staphylococcus aureus) | MIC90 [1] | MIC90 (Enterococcus faecalis) | MIC90 (Enterococcus faecium) | MIC90 (Escherichia coli [2]) | MIC90 (Escherichia coli [3]) | MIC90 (Escherichia coli [4]) | MIC90 (Pseudomonas aeruginosa) | MIC90 (Klebsiella pneumoniae) | MIC90 (Haemophilus influenzae) | MIC90 (Moraxella catarrhalis) | Structure (SMILES)
> 128 µg/mL | > 128 µg/mL | > 128 µg/mL | > 128 µg/mL | > 128 µg/mL | > 128 µg/mL | 64 µg/mL (≈ 150 µM) | > 128 µg/mL | > 128 µg/mL | > 128 µg/mL | > 128 µg/mL | CCOC(=O)C1=C(O)CC(c2ccccc2)N(C(=O)c2ccccc2)C1c1ccccc1 (stereo not given)
> 128 µg/mL | > 128 µg/mL | > 128 µg/mL | > 128 µg/mL | > 128 µg/mL | > 128 µg/mL | > 128 µg/mL | > 128 µg/mL | > 128 µg/mL | > 128 µg/mL | 32 µg/mL (≈ 66.6 µM) | CCOC(=O)C1=C(O)CC(c2ccccc2)N(C(=O)Cn2ccc3ccccc32)C1c1ccccc1 (stereo not given)
128 µg/mL (≈ 297 µM) | > 128 µg/mL | > 128 µg/mL | > 128 µg/mL | > 128 µg/mL | > 128 µg/mL | 64 µg/mL (≈ 148 µM) | > 128 µg/mL | > 128 µg/mL | > 128 µg/mL | 64 µg/mL (≈ 148 µM) | CCOC(=O)C1=C(O)CC(c2ccccc2)N(C(=O)Cn2ccnc2)C1c1ccccc1 (stereo not given)
> 128 µg/mL | > 128 µg/mL | > 128 µg/mL | 128 µg/mL (≈ 251 µM) | > 128 µg/mL | > 128 µg/mL | > 128 µg/mL | > 128 µg/mL | > 128 µg/mL | > 128 µg/mL | > 128 µg/mL | CCOC(=O)C1=C(O)CC(c2ccccc2)N(C(=O)Cn2nnc(-c3ccccc3)n2)C1c1ccccc1 (stereo not given)
> 128 µg/mL | > 128 µg/mL | > 128 µg/mL | > 128 µg/mL | > 128 µg/mL | > 128 µg/mL | > 128 µg/mL | > 128 µg/mL | > 128 µg/mL | > 128 µg/mL | > 128 µg/mL | CCOC(=O)C1=C(O)CC(c2ccccc2)N(C(=O)C(C)Oc2ccc3ccccc3c2)C1c1ccccc1 (stereo not given)
> 128 µg/mL | > 128 µg/mL | > 128 µg/mL | > 128 µg/mL | > 128 µg/mL | > 128 µg/mL | 128 µg/mL (≈ 259 µM) | > 128 µg/mL | > 128 µg/mL | > 128 µg/mL | > 128 µg/mL | CCOC(=O)C1=C(O)CC(c2ccccc2)N(C(=O)C(C)n2ccc3ccccc32)C1c1ccccc1 (stereo not given)
> 128 µg/mL | > 128 µg/mL | > 128 µg/mL | 64 µg/mL (≈ 133 µM) | > 128 µg/mL | > 128 µg/mL | > 128 µg/mL | > 128 µg/mL | > 128 µg/mL | > 128 µg/mL | > 128 µg/mL | CCOC(=O)C1=C(O)CC(c2ccccc2)N(C(=O)Cn2nnc3ccccc32)C1c1ccccc1 (stereo not given)
> 128 µg/mL | > 128 µg/mL | > 128 µg/mL | 128 µg/mL (≈ 252 µM) | > 128 µg/mL | > 128 µg/mL | > 128 µg/mL | > 128 µg/mL | > 128 µg/mL | > 128 µg/mL | > 128 µg/mL | CCOC(=O)C1=C(O)CC(c2ccccc2)N(C(=O)COc2ccc3ccccc3c2)C1c1ccccc1 (stereo not given)
> 128 µg/mL | > 128 µg/mL | > 128 µg/mL | > 128 µg/mL | > 128 µg/mL | > 128 µg/mL | > 128 µg/mL | > 128 µg/mL | > 128 µg/mL | > 128 µg/mL | > 128 µg/mL | CCOC(=O)C1=C(O)CC(c2ccccc2)N(C(=O)C(C)Sc2ccc3ccccc3c2)C1c1ccccc1 (stereo not given)
 | > 128 µg/mL | > 128 µg/mL | > 128 µg/mL | > 128 µg/mL | > 128 µg/mL | > 128 µg/mL | > 128 µg/mL | > 128 µg/mL | > 128 µg/mL | > 128 µg/mL | CCOC(=O)C1=C(O)CC(c2ccccc2)N(C(=O)C(C)n2cnc3ccccc32)C1c1ccccc1 (stereo not given)
> 128 µg/mL | > 128 µg/mL | > 128 µg/mL | > 128 µg/mL | > 128 µg/mL | > 128 µg/mL | > 128 µg/mL | > 128 µg/mL | > 128 µg/mL | > 128 µg/mL | > 128 µg/mL | CCOC(=O)C1=C(O)CC(c2ccccc2)N(C(=O)C(C)n2nnc3ccccc32)C1c1ccccc1 (stereo not given)
> 128 µg/mL | > 128 µg/mL | > 128 µg/mL | > 128 µg/mL | > 128 µg/mL | > 128 µg/mL | > 128 µg/mL | > 128 µg/mL | > 128 µg/mL | > 128 µg/mL | > 128 µg/mL | CCOC(=O)C1=C(O)CC(c2ccccc2)N(C(=O)CSc2nc3ccccc3o2)C1c1ccccc1 (stereo not given)
> 128 µg/mL | > 128 µg/mL | > 128 µg/mL | 128 µg/mL (≈ 244 µM) | > 128 µg/mL | > 128 µg/mL | > 128 µg/mL | > 128 µg/mL | > 128 µg/mL | > 128 µg/mL | > 128 µg/mL | CCOC(=O)C1=C(O)CC(c2ccccc2)N(C(=O)CSc2ccc3ccccc3c2)C1c1ccccc1 (stereo not given)
